Measurements as given in US20230127499A1, “PEPTIDES AND ADJUVANTS FOR AU[…] […] FOR CORONAVIRUS” (FIGENE, LLC, priority 2020, published 2023).
Like-named read-outs stand apart in the source and are kept apart here.

Key:
[1] = test system: human peripheral blood mononuclear cell (PBMC) derived monocytes; experiment: Endotoxin-induced TNF production in monocyte/fibroblast cultures (ELISA); assay type: cell-based; conditions: LPS 1 ug/ml, FIG. 5
Experimental: Hydroxychloroquine (Sigma Aldrich) was diluted at the concentrations indicated. Levels of tumor necrosis factor (TNF) were assessed by ELISA.

[2] = test system: healthy rats; conditions: 500 ng intra-tracheally; within 5 hours; versus saline-treated control rats; cited from earlier work
[3] = test system: neutrophils; conditions: cited from earlier work; for neutrophil apoptosis: 100 ng/mL

## CCN(CCO)CCCC(C)Nc1ccnc2cc(Cl)ccc12 (stereo not shown) [hydroxychloroquine]
[1]
  production of TNF-alpha from macrophages: suppressed production of TNF-alpha

## TNF-alpha
[2]
  lung lavage neutrophils: substantially higher
  lung leak: substantially higher
  lung myeloperoxidase (MPO) activity: substantially higher
[3]; at 4-8 h
  neutrophil apoptosis: increased
[3]; at 24 h
  neutrophil apoptosis: markedly suppressed
[3]; PMN cultured for 24 h
  levels of IL-8: markedly increased
